Experimental data taken from patent US11697650B2, “Compounds having tetrahydroindolizine-1-carboxamide as BCL-2 inhibitors” (Eil Therapeutics, Inc., priority 2021, dated 2023).

How the values were obtained:
BCL-2 = BCL-2 (Homo sapiens (Human), UniProt P10415); assay: BCL-2 TR-FRET Assay (primary PPI inhibition); format: binding; conditions: 60 min incubation; read-out: BCL2 (IC50 code, BCL-2 TR-FRET)
In short: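 Mixture of 3 ng BCL-2, anti-His Tb donor, dye-labeled acceptor and BCL-2 peptide ligand, incubated 60 min with test compound. TR-FRET read at 340 nm excitation, 620/665 nm emission, 60 µs delay, 500 µs integration.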

MOLT-4 cells = assay: Cell viability assay (CellTiter-Glo), MOLT-4; format: cell-based; conditions: Homo sapiens, 72 h, 3 days, read-out: MOLT-4 (CC50 code)
Description: (§1) Culture medium for HEK293—DMEM (PanEco, Cat #C420) was used. RPMI-1640 (PanEco, Cat #C363) was used for the rest of the cell lines.
(§2) Compounds were prepared as 200× stocks with serial dilution in 100% DMSO with a final concentration of 1×.
(§3) […] were dispersed in 40 μL aliquots in 384-well plates at a concentration of 2000 cells per well for HEK293 and at a concentration of 4000 cells per well for the rest of the cell lines using a robotic station Biomek (Beckman). Before adding compounds, the cells were incubated at 37° C. (HEK293 were incubated for a day before adding compounds).
(§4) A dilution plate was prepared by pouring 78 μL of the appropriate culture medium using a robotic station Biomek (Beckman). Sequentially, using a robotic station, 2 μL of substances were taken and added to 78 μL of culture medium (dilution of compounds 40×). 10 μL aliquots were taken and added to the plates of the cells (dilution of compounds 5×). The plates were incubated for 3 days at a temperature 37° C. After 3 days, 10 μL of CellTiter-Glo (Promega) was added to the cells and the luminescence was measured.

[1] = tested on: caspase-3 and -7 activities in RS4-11 cells; assay: Caspase-3/7 activation (Caspase-Glo 3/7) in RS4-11 cells; format: cell-based; conditions: Homo sapiens, 3.5 h incubation, read-out: Cas-3/7 (EC50 code)
Description: The Caspase-Glo 3/7 Assay is homogeneous, luminescent assay that measures caspase-3 and -7 activities. The assay provides a luminogenic caspase-3/7 substrate, which contains the tetrapeptide sequence DEVD, in a reagent optimized for caspase activity.
Incubate RS4-11 cells with varying concentrations of test compounds for 3.5 h in a humidified incubator at 37° C. and 5% CO2 and 30 min at r.t. Add 15 μl Caspase-Glo reagent to each well and incubate the plate for 30 min at r.t. Read on ClarioStar Plus instrument.
Promega Caspase-Glo (Promega, #8212); Frozen RS4-11 cells; 384-well white plate (Corning, #3570).
ClarioStar Plus; Biomek FX for liquid handling (Beckman Coulter).

[2] = Cell viability assay (CellTiter-Glo), HEK293; format: cell-based; conditions: human, HEK293 cells, read-out: HEK293 (CC50 code)
Description: as §1, §2, §3, §4

RS4-11 cells = assay: Cell viability assay (CellTiter-Glo), RS4-11; format: cell-based; conditions: Homo sapiens, 72 h, 3 days, read-out: RS4-11 (CC50 code)
Description: as §1, §2, §3, §4

BCL-XL = BCL-XL (Homo sapiens (Human), UniProt Q07817); assay: BCL-XL TR-FRET Assay (primary PPI inhibition); format: binding; conditions: 60 min incubation; read-out: BCLxL (IC50 code, BCL-XL TR-FRET)
In short: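 TR-FRET displacement of a dye-labelled BCL-XL peptide ligand from His-tagged BCL-XL (10.5 ng) detected with a Tb-labelled anti-His donor. Incubation ran 60 min with test compound. Readout used 340 nm excitation and 620/665 nm emission with a 60 µs delay.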

Chain of BCL-XL (Q07817 whole entry): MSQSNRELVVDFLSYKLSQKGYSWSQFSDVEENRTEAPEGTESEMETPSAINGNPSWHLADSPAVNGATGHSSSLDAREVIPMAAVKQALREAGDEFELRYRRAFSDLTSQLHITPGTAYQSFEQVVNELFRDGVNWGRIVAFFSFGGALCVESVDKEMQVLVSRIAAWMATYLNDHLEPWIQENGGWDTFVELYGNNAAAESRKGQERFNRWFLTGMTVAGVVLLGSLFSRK
Chain of BCL-2 (P10415 whole entry): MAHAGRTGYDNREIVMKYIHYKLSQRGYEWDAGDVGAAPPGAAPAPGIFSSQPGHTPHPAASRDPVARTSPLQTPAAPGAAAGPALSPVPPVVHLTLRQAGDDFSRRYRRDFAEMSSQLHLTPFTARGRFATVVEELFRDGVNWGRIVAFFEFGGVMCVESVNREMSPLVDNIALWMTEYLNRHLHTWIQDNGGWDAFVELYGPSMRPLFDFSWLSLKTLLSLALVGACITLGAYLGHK

Row | Structure (SMILES) | IC50 (BCL-2) [nM] | CC50 (MOLT-4 cells) [nM] | EC50 [1] [nM] | CC50 at 3 days [2] [nM] | CC50 (RS4-11 cells) [nM] | IC50 (BCL-XL) [nM]
1 | O=C(c1cc(-c2cc3c(cc2C(=O)N2Cc4ccccc4C[C@H]2CN2CCOCC2)OCO3)n2c1CCCC2)N(Cc1cccc(C(F)(F)F)c1)c1ccc(O)cc1 [Compound 16, N-(4-hydroxyphenyl)-3-(6-{[(3S)-3-(morpholin-4-ylmethyl)-3,4-dihydroisoquinolin-2(1H)-yl]carbonyl}-1,3-benzodioxol-5-yl)-N-[3-(trifluoromethyl)benzyl]-5,6,7,8-tetrahydroindolizine-1-carboxamide] | 10 to 50 | > 10000 | 100 to 250 | > 25000 | 100 to 200 | > 4000
2 | O=C(c1cc(-c2cc3c(cc2C(=O)N2Cc4ccccc4C[C@H]2CN2CCOCC2)OCO3)n2c1CCCC2)N(Cc1ccccc1-c1ccccc1)c1ccc(O)cc1 [Compound 18, N-(biphenyl-2-ylmethyl)-N-(4-hydroxyphenyl)-3-(6-{[(3S)-3-(morpholin-4-ylmethyl)-3,4-dihydroisoquinolin-2(1H)-yl]carbonyl}-1,3-benzodioxol-5-yl)-5,6,7,8-tetrahydroindolizine-1-carboxamide] | 10 to 50 | 2000 to 10000 | > 250 | > 25000 | > 200 | ≤ 2000
3 | O=C(c1cc(-c2cc3c(cc2C(=O)N2Cc4ccccc4C[C@H]2CN2CCOCC2)OCO3)n2c1CCCC2)N(Cc1c(F)cccc1F)c1ccc(O)cc1 [Compound 19, N-(2,6-difluorobenzyl)-N-(4-hydroxyphenyl)-3-(6-{[(3S)-3-(morpholin-4-ylmethyl)-3,4-dihydroisoquinolin-2(1H)-yl]carbonyl}-1,3-benzodioxol-5-yl)-5,6,7,8-tetrahydroindolizine-1-carboxamide] | 5 to 10 | 2000 to 10000 | > 250 | > 25000 | > 200 | > 4000
4 | Cc1ccc(CN(C(=O)c2cc(-c3cc4c(cc3C(=O)N3Cc5ccccc5C[C@H]3CN3CCOCC3)OCO4)n3c2CCCC3)c2ccc(O)cc2)cc1 [Compound 20, N-(4-hydroxyphenyl)-N-(4-methylbenzyl)-3-(6-{[(3S)-3-(morpholin-4-ylmethyl)-3,4-dihydroisoquinolin-2(1H)-yl]carbonyl}-1,3-benzodioxol-5-yl)-5,6,7,8-tetrahydroindolizine-1-carboxamide] | 5 to 10 | 2000 to 10000 | > 250 | ≤ 10000 | 100 to 200 | 2000 to 4000
5 | O=C(c1cc(-c2cc3c(cc2C(=O)N2Cc4ccccc4C[C@H]2CN2CCOCC2)OCO3)n2c1CCCC2)N(Cc1cccc(F)c1)c1ccc(O)cc1 [Compound 21, N-(3-fluorobenzyl)-N-(4-hydroxyphenyl)-3-(6-{[(3S)-3-(morpholin-4-ylmethyl)-3,4-dihydroisoquinolin-2(1H)-yl]carbonyl}-1,3-benzodioxol-5-yl)-5,6,7,8-tetrahydroindolizine-1-carboxamide] | 10 to 50 | > 10000 | > 250 | > 25000 | 100 to 200 | 2000 to 4000
6 | COc1c(C)cnc(CN(C(=O)c2cc(-c3cc4c(cc3C(=O)N3Cc5ccccc5C[C@H]3CN3CCOCC3)OCO4)n3c2CCCC3)c2ccc(O)cc2)c1C [Compound 23, N-(4-hydroxyphenyl)-N-[(4-methoxy-3,5-dimethylpyridin-2-yl)methyl]-3-(6-{[(3S)-3-(morpholin-4-ylmethyl)-3,4-dihydroisoquinolin-2(1H)-yl]carbonyl}-1,3-benzodioxol-5-yl)-5,6,7,8-tetrahydroindolizine-1-carboxamide] | 10 to 50 | > 10000 | > 250 | 10000 to 25000 | > 200 | > 4000
7 | O=C(c1cc(-c2cc3c(cc2C(=O)N2Cc4ccccc4C[C@H]2CN2CCOCC2)OCO3)n2c1CCCC2)N(Cc1ccc(C(F)(F)F)cc1)c1ccc(O)cc1 [Compound 24, N-(4-hydroxyphenyl)-3-(6-{[(3S)-3-(morpholin-4-ylmethyl)-3,4-dihydroisoquinolin-2(1H)-yl]carbonyl}-1,3-benzodioxol-5-yl)-N-[4-(trifluoromethyl)benzyl]-5,6,7,8-tetrahydroindolizine-1-carboxamide] | 10 to 50 | 2000 to 10000 | > 250 | ≤ 10000 | > 200 | > 4000
8 | COc1ccccc1CN(C(=O)c1cc(-c2cc3c(cc2C(=O)N2Cc4ccccc4C[C@H]2CN2CCOCC2)OCO3)n2c1CCCC2)c1ccc(O)cc1 [Compound 31, N-(4-hydroxyphenyl)-N-(2-methoxybenzyl)-3-(6-{[(3S)-3-(morpholin-4-ylmethyl)-3,4-dihydroisoquinolin-2(1H)-yl]carbonyl}-1,3-benzodioxol-5-yl)-5,6,7,8-tetrahydroindolizine-1-carboxamide] | ≤ 5 | ≤ 2000 | ≤ 100 | > 25000 | ≤ 100 | ≤ 2000
9 | O=C(c1cc(-c2cc3c(cc2C(=O)N2Cc4ccccc4C[C@H]2CN2CCOCC2)OCO3)n2c1CCCC2)N(Cc1ccccc1Cl)c1ccc(O)cc1 [Compound 33, N-(2-chlorobenzyl)-N-(4-hydroxyphenyl)-3-(6-{[(3S)-3-(morpholin-4-ylmethyl)-3,4-dihydroisoquinolin-2(1H)-yl]carbonyl}-1,3-benzodioxol-5-yl)-5,6,7,8-tetrahydroindolizine-1-carboxamide] | ≤ 5 | ≤ 2000 | ≤ 100 | 10000 to 25000 | ≤ 100 | ≤ 2000
10 | Cc1cccc(Cl)c1CN(C(=O)c1cc(-c2cc3c(cc2C(=O)N2Cc4ccccc4C[C@H]2CN2CCOCC2)OCO3)n2c1CCCC2)c1ccc(O)cc1 [Compound 34, N-(2-chloro-6-methylbenzyl)-N-(4-hydroxyphenyl)-3-(6-{[(3S)-3-(morpholin-4-ylmethyl)-3,4-dihydroisoquinolin-2(1H)-yl]carbonyl}-1,3-benzodioxol-5-yl)-5,6,7,8-tetrahydroindolizine-1-carboxamide] | > 50 | ≤ 2000 | > 250 | > 25000 | > 200 | > 4000
11 | O=C(c1cc(-c2cc3c(cc2C(=O)N2Cc4ccccc4C[C@H]2CN2CCOCC2)OCO3)n2c1CCCC2)N(Cc1c(Cl)ccc(F)c1F)c1ccc(O)cc1 [Compound 35, N-(6-chloro-2,3-difluorobenzyl)-N-(4-hydroxyphenyl)-3-(6-{[(3S)-3-(morpholin-4-ylmethyl)-3,4-dihydroisoquinolin-2(1H)-yl]carbonyl}-1,3-benzodioxol-5-yl)-5,6,7,8-tetrahydroindolizine-1-carboxamide] | 10 to 50 | ≤ 2000 | > 250 | > 25000 | > 200 | > 4000
12 | Cn1cnnc1CN(C(=O)c1cc(-c2cc3c(cc2C(=O)N2Cc4ccccc4C[C@H]2CN2CCOCC2)OCO3)n2c1CCCC2)c1ccc(O)cc1 [Compound 48, N-(4-Hydroxyphenyl)-N-[(4-methyl-1,2,4-triazol-3-yl)methyl]-3-[6-[(3S)-3-(morpholinomethyl)-3,4-dihydro-1H-isoquinoline-2-carbonyl]-1,3-benzodioxol-5-yl]-5,6,7,8-tetrahydroindolizine-1-carboxamide] | ≤ 5 | 2000 to 10000 | ≤ 100 | 10000 to 25000 | ≤ 100 | ≤ 2000
13 | Cc1c(CN(C(=O)c2cc(-c3cc4c(cc3C(=O)N3Cc5ccccc5C[C@H]3CN3CCOCC3)OCO4)n3c2CCCC3)c2ccc(O)cc2)cccc1[N+](=O)[O-] [Compound 50, N-(4-Hydroxyphenyl)-N-[(2-methyl-3-nitro-phenyl)methyl]-3-[6-[(3S)-3-(morpholinomethyl)-3,4-dihydro-1H-isoquinoline-2-carbonyl]-1,3-benzodioxol-5-yl]-5,6,7,8-tetrahydroindolizine-1-carboxamide] | > 50 | 2000 to 10000 | > 250 | > 25000 | > 200 | > 4000
